Laboratory results reported in patent US20260193236A1 (Protego Biopharma, Inc., priority 2022, published 2026).
Counter-ions that a name gives are not always drawn.

What follows are molecules tested on IRE1-XBP1s (XBP1-RLuc splicing reporter in HEK293 T-REx cells) (assay: IRE1-XBP1s activation assay (XBP1-RLuc splicing reporter, HEK293 T-REx cells, luminescence relative to thapsigargin)). Conditions: 18 h, compound 10 μM, HEK293 T-REx XBP1-RLuc reporter cells, relative to thapsigargin (Tg) 500 nM, read-out: Activity (IRE1-XBP1s activation, luminescence as % signal relative to thapsigargin, % Tg).
Type: cell-based
Experimental: IRE1-XBP1s activation Assay: HEK293 T-REx cells stably expressing the XBP1-RLuc splicing reporter were treated with an IRE1-XBP1s activator provided herein (10 μM) in the presence or absence of the IRE1 active site inhibitor 4μ8C (32 μM) for 18 h. Luminescence was shown as the percentage signal relative to thapsigargin (Tg) (500 nM, 18 h).

Compared with `Cc1ccc(OCCN(C)C(=O)Cn2cc(NC(=O)CCOC3CCC(C)(C)CC3)cn2)cc1` [Compound 3, 3-((4,4-dimethylcyclohexyl)oxy)-N-(1-(2-(methyl(2-(p-tolyloxy)ethyl)amino)-2-oxoethyl)-1H-pyrazol-4-yl)propanamide], `Cc1ccc(OCCN(C)C(=O)Cn2cc(NC(=O)CCOC3CCCCC3(C)C)cn2)cc1` (stereo not drawn) [Compound 4] is lower in activation at 10 µM: greater than 50% for the first, less than 30% for the second.

Compared with `CCc1ccc(OCCN(C)C(=O)Cn2cc(NC(=O)CCOC3CCCCC3)cn2)cc1` [Compound 5], `CCc1ccc(OCCN(C)C(=O)Cn2cc(NC(=O)CCOc3ccccc3)cn2)cc1` [Compound 26] is higher in activation at 10 µM: 30 to 50% for the first, greater than 50% for the second.

`Cc1ccc(OCCN(C)C(=O)Cn2cc(NC(=O)CCOc3cccnc3)cn2)cc1` [Compound 6, N-(1-(2-(methyl(2-(p-tolyloxy)ethyl)amino)-2-oxoethyl)-1H-pyrazol-4-yl)-3-(pyridin-3-yloxy)propanamide] and `Cc1ccc(OCCN(C)C(=O)Cn2cc(NC(=O)CCOc3ccncc3)cn2)cc1` [Compound 9] cannot be ordered by activation at 10 µM: greater than 50% for the first, greater than 50% for the second.

Compared with `Cc1ccc(OCCN(C)C(=O)Cn2cc(NC(=O)CCOc3ccnc(Cl)c3)cn2)cc1` [Compound 8], `Cc1ccc(OCCN(C)C(=O)Cn2cc(NC(=O)CCOc3cccnc3C)cn2)cc1` [Compound 13] is lower in activation at 10 µM: greater than 50% for the first, 30 to 50% for the second.

`Cc1ccc(OCCN(C)C(=O)Cn2cc(NC(=O)CCOc3ccc(F)nc3C)cn2)cc1` [Compound 10] and `Cc1ccc(OCCN(C)C(=O)Cn2cc(NC(=O)CCOc3ccc(C)nc3C)cn2)cc1` [Compound 11] fall in the same range of activation at 10 µM: 30 to 50% for the first, 30 to 50% for the second.

Compared with `Cc1ccc(OCCN(C)C(=O)Cn2cc(NC(=O)CCOc3cnccc3C(F)(F)F)cn2)cc1` [Compound 12], `Cc1ccc(OCCN(C)C(=O)Cn2cc(NC(=O)CCOc3cccnc3C(F)(F)F)cn2)cc1` [Compound 16] is higher in activation at 10 µM: less than 30% for the first, 30 to 50% for the second.

Compared with `Cc1ccc(OCCN(C)C(=O)Cn2cc(NC(=O)CCOc3c(C)ccnc3C)cn2)cc1` [Compound 14], `Cc1ccc(OCCN(C)C(=O)Cn2cc(NC(=O)CCOc3c(C)ccnc3N)cn2)cc1` [Compound 17] is lower in activation at 10 µM: 30 to 50% for the first, less than 30% for the second.

`Cc1ccc(OCCN(C)C(=O)Cn2cc(NC(=O)CCOc3c(C(C)C)ccnc3C)cn2)cc1` [Compound 15] and `Cc1ccc(OCCN(C)C(=O)Cn2cc(NC(=O)CCOc3c(F)cncc3F)cn2)cc1` [Compound 18] cannot be ordered by activation at 10 µM: greater than 50% for the first, greater than 50% for the second.

First: CN(CCOc1ccc(C(F)(F)F)cc1)C(=O)Cn1cc(NC(=O)CCOc2ccncc2F)cn1 [Compound 19]
Second: COc1ccc(OCCN(C)C(=O)Cn2cc(NC(=O)CCOc3ccccc3)cn2)cc1 [Compound 24]
The activation at 10 µM of the first is higher: 30 to 50% for the first, less than 30% for the second.

`Cc1ccc(OCCN(C)C(=O)Cn2cc(NC(=O)CCN(C)c3ccccc3)cn2)cc1` [Compound 21] and `Cc1ccc(OCCN(C)C(=O)Cn2cc(NC(=O)CCN(C(=O)OC(C)(C)C)c3ccccc3)cn2)cc1` [Compound 23] cannot be ordered by activation at 10 µM: less than 30% for the first, less than 30% for the second.

`CN(CCOc1ccc(C#N)cc1)C(=O)Cn1cc(NC(=O)CCOc2ccccc2)cn1` [Compound 25] was tested, and the activation at 10 µM was less than 30%.

Same assay, conditions: 18 h, read-out: Activity (IRE1-XBP1s activation, luminescence as % signal relative to thapsigargin, % Tg)

Going from `C#CC1CCCCC1OCCC(=O)Nc1cnn(CC(=O)N(C)CCOc2ccc(C)cc2)c1` (stereo not drawn) [Compound 2, 3-((2-ethynylcyclohexyl)oxy)-N-(1-(2-(methyl(2-(p-tolyloxy)ethyl)amino)-2-oxoethyl)-1H-pyrazol-4-yl)propanamide hydrochloride] to `Cc1ccc(OCCN(C)C(=O)Cn2cc(NC(=O)CCOc3ccc(C#N)cc3)cn2)cc1` [Compound 20, 3-(4-cyanophenoxy)-N-(1-(2-(methyl(2-(p-tolyloxy)ethyl)amino)-2-oxoethyl)-1H-pyrazol-4-yl)propanamide], the activation at 10 µM falls from greater than 50% to less than 30%.

`CN(CCc1ccc(Cl)cc1)C(=O)Cn1cc(NC(=O)CCOc2ccccc2)cn1` [Compound 22, N-(1-(2-((4-chlorophenethyl)(methyl)amino)-2-oxoethyl)-1H-pyrazol-4-yl)-3-phenoxypropanamide hydrochloride] showed an activation at 10 µM of less than 30%.
